Several values for one entry are separate records, joined by “and”; a condition that tells them apart may be missing. Identical values can stand only once. Like-named read-outs stand apart in the source and are kept apart here.
How the values were obtained:
[1] = biological target: VEGFR-2 (Homo sapiens, UniProt P35968); experiment: VEGFR-2 kinase inhibition, Caliper screening (fluorescent substrate phosphorylation, electrophoretic separation)
[2] = biological target: c-Kit (Homo sapiens, UniProt P10721); experiment: c-Kit tyrosine kinase inhibition, Caliper screening (fluorescent substrate phosphorylation, electrophoretic separation); format: biochemical; conditions: for IC50: averages of replicate wells; for c-Kit Fold: fold of IC50 relative to sunitinib
Sequence of c-Kit (P10721 26-976): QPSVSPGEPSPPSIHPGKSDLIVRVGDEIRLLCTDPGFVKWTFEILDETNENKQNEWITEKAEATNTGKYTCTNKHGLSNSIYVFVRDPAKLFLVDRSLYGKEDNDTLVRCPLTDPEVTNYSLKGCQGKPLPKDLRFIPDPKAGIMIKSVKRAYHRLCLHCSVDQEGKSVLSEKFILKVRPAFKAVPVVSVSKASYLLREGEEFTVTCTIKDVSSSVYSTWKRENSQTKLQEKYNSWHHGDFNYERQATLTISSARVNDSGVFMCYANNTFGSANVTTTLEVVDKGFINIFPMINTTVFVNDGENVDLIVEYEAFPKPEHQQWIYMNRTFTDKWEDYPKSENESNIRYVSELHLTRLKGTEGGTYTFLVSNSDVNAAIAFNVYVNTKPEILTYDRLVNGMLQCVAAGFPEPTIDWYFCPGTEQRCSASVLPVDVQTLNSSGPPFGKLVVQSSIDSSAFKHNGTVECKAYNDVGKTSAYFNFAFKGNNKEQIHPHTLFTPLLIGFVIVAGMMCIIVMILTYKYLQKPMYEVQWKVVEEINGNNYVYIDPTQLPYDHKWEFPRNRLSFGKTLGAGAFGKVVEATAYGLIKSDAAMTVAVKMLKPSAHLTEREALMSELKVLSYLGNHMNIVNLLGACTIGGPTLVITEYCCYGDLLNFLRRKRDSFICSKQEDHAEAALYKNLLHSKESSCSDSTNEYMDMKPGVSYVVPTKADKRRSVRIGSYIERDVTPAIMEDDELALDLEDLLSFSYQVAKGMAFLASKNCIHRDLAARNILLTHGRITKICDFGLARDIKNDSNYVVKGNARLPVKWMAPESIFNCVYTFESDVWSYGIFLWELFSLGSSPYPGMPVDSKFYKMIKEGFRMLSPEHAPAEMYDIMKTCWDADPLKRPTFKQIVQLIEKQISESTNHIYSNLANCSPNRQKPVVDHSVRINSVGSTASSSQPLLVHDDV

[3] = biological target: RET (Homo sapiens, UniProt P07949); experiment: RET kinase inhibition, Caliper screening (fluorescent substrate phosphorylation, electrophoretic separation); conditions: for RET Fold: fold of IC50 relative to sunitinib
Sequence of RET (P07949 29-1114, species assumed): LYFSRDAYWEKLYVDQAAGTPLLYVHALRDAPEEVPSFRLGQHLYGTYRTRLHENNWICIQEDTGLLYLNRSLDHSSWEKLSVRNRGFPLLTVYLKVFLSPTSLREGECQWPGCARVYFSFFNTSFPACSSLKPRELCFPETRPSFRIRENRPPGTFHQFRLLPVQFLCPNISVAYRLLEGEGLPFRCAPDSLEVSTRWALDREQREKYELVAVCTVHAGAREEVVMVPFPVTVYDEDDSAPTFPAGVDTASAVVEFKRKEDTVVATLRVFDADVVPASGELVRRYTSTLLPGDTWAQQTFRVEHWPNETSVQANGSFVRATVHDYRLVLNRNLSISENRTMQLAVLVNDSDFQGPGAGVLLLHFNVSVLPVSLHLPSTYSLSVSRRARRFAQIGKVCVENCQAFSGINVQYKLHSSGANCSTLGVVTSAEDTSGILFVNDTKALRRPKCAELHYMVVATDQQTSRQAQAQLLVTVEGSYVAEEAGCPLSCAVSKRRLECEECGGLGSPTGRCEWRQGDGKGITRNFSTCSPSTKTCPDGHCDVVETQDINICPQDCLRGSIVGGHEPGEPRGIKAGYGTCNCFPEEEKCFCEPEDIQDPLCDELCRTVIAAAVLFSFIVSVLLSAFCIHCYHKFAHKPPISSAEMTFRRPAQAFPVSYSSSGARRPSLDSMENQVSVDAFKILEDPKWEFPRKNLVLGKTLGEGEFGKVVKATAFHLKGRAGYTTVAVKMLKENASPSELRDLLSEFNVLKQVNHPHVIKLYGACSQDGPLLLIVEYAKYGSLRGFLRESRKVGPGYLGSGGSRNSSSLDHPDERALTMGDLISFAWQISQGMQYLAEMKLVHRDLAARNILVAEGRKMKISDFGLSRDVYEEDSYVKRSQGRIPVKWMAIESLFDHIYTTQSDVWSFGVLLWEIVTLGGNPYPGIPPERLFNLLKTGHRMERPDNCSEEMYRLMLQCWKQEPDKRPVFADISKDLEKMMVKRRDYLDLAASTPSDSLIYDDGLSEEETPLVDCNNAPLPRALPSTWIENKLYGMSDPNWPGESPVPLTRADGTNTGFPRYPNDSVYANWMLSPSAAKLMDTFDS

[4] = concentration 1.0E−05 (unit not given)
[5] = concentration 1.0E−06 (unit not given)
[6] = concentration 1.0E−07 (unit not given)
[7] = concentration 1.0E−08 (unit not given)
[8] = concentration 1.0E−09 (unit not given)
[9] = concentration 1.0E−10 (unit not given)
[10] = concentration 3.0E−05 (unit not given)
[11] = concentration 3.0E−06 (unit not given)
[12] = concentration 3.0E−07 (unit not given)
[13] = concentration 3.0E−08 (unit not given)
[14] = concentration 3.0E−09 (unit not given)
[15] = concentration 3.0E−10 (unit not given)

Sequence of VEGFR-2 (P35968 20-1356, species assumed): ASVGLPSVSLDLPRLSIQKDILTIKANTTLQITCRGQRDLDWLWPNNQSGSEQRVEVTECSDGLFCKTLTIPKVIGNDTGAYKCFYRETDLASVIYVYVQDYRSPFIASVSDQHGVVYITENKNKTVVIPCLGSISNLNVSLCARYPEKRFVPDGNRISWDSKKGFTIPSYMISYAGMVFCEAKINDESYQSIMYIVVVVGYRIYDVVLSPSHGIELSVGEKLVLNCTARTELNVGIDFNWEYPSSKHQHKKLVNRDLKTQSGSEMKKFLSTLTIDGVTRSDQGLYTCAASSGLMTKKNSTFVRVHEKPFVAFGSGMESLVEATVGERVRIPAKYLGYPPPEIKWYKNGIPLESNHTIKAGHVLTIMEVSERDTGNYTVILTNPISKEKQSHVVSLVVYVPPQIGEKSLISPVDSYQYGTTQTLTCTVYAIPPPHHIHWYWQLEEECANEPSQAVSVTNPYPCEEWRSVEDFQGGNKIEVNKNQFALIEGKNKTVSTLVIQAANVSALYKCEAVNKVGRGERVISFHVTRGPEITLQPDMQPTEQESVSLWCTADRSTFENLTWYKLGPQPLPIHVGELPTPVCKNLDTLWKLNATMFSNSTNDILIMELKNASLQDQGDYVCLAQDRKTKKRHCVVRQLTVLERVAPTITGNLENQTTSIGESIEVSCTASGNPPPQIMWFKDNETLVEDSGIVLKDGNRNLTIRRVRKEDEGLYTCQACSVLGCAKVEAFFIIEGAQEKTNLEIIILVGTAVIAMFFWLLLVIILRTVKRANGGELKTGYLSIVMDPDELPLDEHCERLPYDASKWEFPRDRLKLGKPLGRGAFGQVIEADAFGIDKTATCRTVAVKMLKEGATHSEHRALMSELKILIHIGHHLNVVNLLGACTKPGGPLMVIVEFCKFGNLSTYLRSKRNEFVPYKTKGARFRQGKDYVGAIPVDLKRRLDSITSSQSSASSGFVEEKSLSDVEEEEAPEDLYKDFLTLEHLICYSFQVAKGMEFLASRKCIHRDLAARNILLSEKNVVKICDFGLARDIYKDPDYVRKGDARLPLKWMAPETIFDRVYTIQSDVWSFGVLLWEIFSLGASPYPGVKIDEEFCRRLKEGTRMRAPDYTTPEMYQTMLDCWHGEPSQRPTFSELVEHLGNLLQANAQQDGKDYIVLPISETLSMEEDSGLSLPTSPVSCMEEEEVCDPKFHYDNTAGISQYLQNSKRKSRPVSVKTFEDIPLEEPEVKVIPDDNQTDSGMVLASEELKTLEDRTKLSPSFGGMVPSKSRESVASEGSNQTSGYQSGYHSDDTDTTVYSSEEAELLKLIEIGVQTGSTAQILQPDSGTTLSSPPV

Compound: COCCOCCOCCOCCOCCOCCNC(=O)c1c(C)[nH]c(/C=C2\C(=O)Nc3ccc(F)cc32)c1C [mPEG6-semaxanib, (Z)-5-((5-fluoro-2-oxoindolin-3-ylidene)methyl)-2,4-dimethyl-1H-pyrrole-3-mPEG6-amide]
- VEGFR-2 AVG % Activity at Specific Concentration [1]: 96% and 93%
- IC50 [2]: 290 nM
- c-Kit AVG % Activity at Specific Concentration [2, 4]: −1%
- c-Kit AVG % Activity at Specific Concentration [2, 5]: 8%
- c-Kit AVG % Activity at Specific Concentration [2, 6]: 79%
- c-Kit AVG % Activity at Specific Concentration [2, 7]: 94%
- c-Kit AVG % Activity at Specific Concentration [2, 8]: 97%
- c-Kit AVG % Activity at Specific Concentration [2, 9]: 91%
- c-Kit AVG % Activity at Specific Concentration [2, 10]: −1%
- c-Kit AVG % Activity at Specific Concentration [2, 11]: 0%
- c-Kit AVG % Activity at Specific Concentration [2, 12]: 44%
- c-Kit AVG % Activity at Specific Concentration [2, 13]: 95%
- c-Kit AVG % Activity at Specific Concentration [2, 14]: 99%
- c-Kit AVG % Activity at Specific Concentration [2, 15]: 87%
- c-Kit Fold [2]: 3.90

Compound: COCCOCCOCCNC(=O)c1c(C)[nH]c(/C=C2\C(=O)Nc3ccc(F)cc32)c1C [mPEG3-semaxanib, (Z)-5-((5-fluoro-2-oxoindolin-3-ylidene)methyl)-2,4-dimethyl-1H-pyrrole-3-mPEG3-amide]
- IC50 [1]: 110 nM
- VEGFR-2 AVG % Activity at Specific Concentration [1, 4]: −3%
- VEGFR-2 AVG % Activity at Specific Concentration [1, 5]: 0%
- VEGFR-2 AVG % Activity at Specific Concentration [1, 6]: 47%
- VEGFR-2 AVG % Activity at Specific Concentration [1, 7]: 90%
- VEGFR-2 AVG % Activity at Specific Concentration [1, 8]: 87%
- VEGFR-2 AVG % Activity at Specific Concentration [1, 9]: 93%
- VEGFR-2 AVG % Activity at Specific Concentration [1, 10]: −6%
- VEGFR-2 AVG % Activity at Specific Concentration [1, 11]: −3%
- VEGFR-2 AVG % Activity at Specific Concentration [1, 12]: 16%
- VEGFR-2 AVG % Activity at Specific Concentration [1, 13]: 78%
- VEGFR-2 AVG % Activity at Specific Concentration [1, 14]: 90%
- VEGFR-2 AVG % Activity at Specific Concentration [1, 15]: 93%
- VEGFR-2 Fold ([1]; fold of IC50 relative to sunitinib): 2.24
- IC50 [2]: 120 nM
- c-Kit AVG % Activity at Specific Concentration [2, 4]: −1%
- c-Kit AVG % Activity at Specific Concentration [2, 5]: 2%
- c-Kit AVG % Activity at Specific Concentration [2, 6]: 58%
- c-Kit AVG % Activity at Specific Concentration [2, 7]: 97%
- c-Kit AVG % Activity at Specific Concentration [2, 8]: 104%
- c-Kit AVG % Activity at Specific Concentration [2, 9]: 100%
- c-Kit AVG % Activity at Specific Concentration [2, 10]: −1%
- c-Kit AVG % Activity at Specific Concentration [2, 11]: 1%
- c-Kit AVG % Activity at Specific Concentration [2, 12]: 16%
- c-Kit AVG % Activity at Specific Concentration [2, 13]: 88%
- c-Kit AVG % Activity at Specific Concentration [2, 14]: 98%
- c-Kit AVG % Activity at Specific Concentration [2, 15]: 102%
- c-Kit Fold [2]: 1.60
- IC50 [3]: 230 nM
- RET AVG % Activity at Specific Concentration [3, 4]: −1%
- RET AVG % Activity at Specific Concentration [3, 5]: 12%
- RET AVG % Activity at Specific Concentration [3, 6]: 68%
- RET AVG % Activity at Specific Concentration [3, 7]: 96%
- RET AVG % Activity at Specific Concentration [3, 8]: 92%
- RET AVG % Activity at Specific Concentration [3, 9]: 92%
- RET AVG % Activity at Specific Concentration [3, 10]: −1%
- RET AVG % Activity at Specific Concentration [3, 11]: 3%
- RET AVG % Activity at Specific Concentration [3, 12]: 38%
- RET AVG % Activity at Specific Concentration [3, 13]: 90%
- RET AVG % Activity at Specific Concentration [3, 14]: 95%
- RET AVG % Activity at Specific Concentration [3, 15]: 94%
- RET Fold [3]: 5.35

Compound: COCCOCCOCCOCCOCCNC(=O)c1c(C)[nH]c(/C=C2\C(=O)Nc3ccc(F)cc32)c1C [mPEG5-semaxanib, (Z)-5-((5-fluoro-2-oxoindolin-3-ylidene)methyl)-2,4-dimethyl-1H-pyrrole-3-mPEG5-amide]
- IC50 [2]: 230 nM
- c-Kit AVG % Activity at Specific Concentration [2, 4]: −1%
- c-Kit AVG % Activity at Specific Concentration [2, 5]: 6%
- c-Kit AVG % Activity at Specific Concentration [2, 6]: 76%
- c-Kit AVG % Activity at Specific Concentration [2, 7]: 106%
- c-Kit AVG % Activity at Specific Concentration [2, 8]: 100%
- c-Kit AVG % Activity at Specific Concentration [2, 9]: 90%
- c-Kit AVG % Activity at Specific Concentration [2, 10]: −1%
- c-Kit AVG % Activity at Specific Concentration [2, 11]: 0%
- c-Kit AVG % Activity at Specific Concentration [2, 12]: 37%
- c-Kit AVG % Activity at Specific Concentration [2, 13]: 96%
- c-Kit AVG % Activity at Specific Concentration [2, 14]: 99%
- c-Kit AVG % Activity at Specific Concentration [2, 15]: 99%
- c-Kit Fold [2]: 3.10
- IC50 [3]: 440 nM
- RET AVG % Activity at Specific Concentration [3, 4]: 0%
- RET AVG % Activity at Specific Concentration [3, 5]: 29%
- RET AVG % Activity at Specific Concentration [3, 6]: 84%
- RET AVG % Activity at Specific Concentration [3, 7]: 99%
- RET AVG % Activity at Specific Concentration [3, 8]: 98%
- RET AVG % Activity at Specific Concentration [3, 9]: 98%
- RET AVG % Activity at Specific Concentration [3, 10]: −1%
- RET AVG % Activity at Specific Concentration [3, 11]: 6%
- RET AVG % Activity at Specific Concentration [3, 12]: 59%
- RET AVG % Activity at Specific Concentration [3, 13]: 95%
- RET AVG % Activity at Specific Concentration [3, 14]: 102%
- RET AVG % Activity at Specific Concentration [3, 15]: 99%
- RET Fold [3]: 10.23
